Test results: patent US20180334436A1 (VIIV HEALTHCARE UK LIMITED, priority 2015, published 2018)

Test system: HIV
Assay: MT4 assay (anti-HIV activity)
Format: cell-based
Details: Human immunodeficiency virus 1, 96 h, antiviral HIV activity in HTLV-1 transformed cell line MT-4; luciferase read 96 hours later; 10 point dose response
Procedure: Antiviral HIV activity and cytotoxicity values for compounds of the invention from Table 1 were measured in parallel in the HTLV-1 transformed cell line MT-4 based on the method previously described (Hazen et al., 2007, In vitro antiviral activity of the novel, tyrosyl-based human immunodeficiency virus (HIV) type 1 protease inhibitor brecanavir (GW640385) in combination with other antiretrovirals and against a panel of protease inhibitor-resistant HIV (Hazen et al., “In vitro antiviral activity of the novel, tyrosyl-based human immunodeficiency virus (HIV) type 1 protease inhibitor brecanavir (GW640385) in combination with other antiretrovirals and against a panel of protease inhibitor-resistant HIV”, Antimicrob. Agents Chemother. 2007, 51: 3147-3154; and Pauwels et al., “Sensitive and rapid assay on MT-4 cells for the detection of antiviral compounds against the AIDS virus”, J. of Virological Methods 1987, 16: 171-185).
Luciferase activity was measured 96 hours later by adding a cell titer glo (Promega, Madison, Wis.). Percent inhibition of cell protection data was plotted relative to no compound control. Under the same condition, cytotoxicity of the compounds was determined using cell titer Glo™ (Promega, Madison, Wis.). IC50s were determined from a 10 point dose response curve using 3-4-fold serial dilution for each compound, which spans a concentration range >1000 fold.
These values are plotted against the molar compound concentrations using the standard four parameter logistic equation:
y=((Vmax*x̂n)/(K̂n+x̂n))+Y2
Y2=minimum y n=slope factor
Vmax=maximum y x=compound concentration [M]

SMILES	IC50 [nM]
Cc1ccc(-c2c(C)c3c(c(C)c2C(OC(C)(C)C)C(=O)O)CN(Cc2cccc(F)c2)CC3)cc1 (stereo not shown) [Example 1, 2-(tert-Butoxy)-2-(2-(3-fluorobenzyl)-5,8-dimethyl-6-(p-tolyl)-1,2,3,4-tetrahydroisoquinolin-7-yl)acetic Acid]	3250
Cc1ccc(-c2c(C)c3c(c(C)c2C(OC(C)(C)C)C(=O)O)CN(C2CCCCC2)CC3)cc1 (stereo not shown) [Example 2, 2-(tert-Butoxy)-2-(2-cyclohexyl-5,8-dimethyl-6-(p-tolyl)-1,2,3,4-tetrahydroisoquinolin-7-yl)acetic Acid]	1720
Cc1ccc(-c2c(C)c3c(c(C)c2C(OC(C)(C)C)C(=O)O)CN(CC2CCCCC2)CC3)cc1 (stereo not shown) [Example 3, 2-(tert-Butoxy)-2-(2-(cyclohexylmethyl)-5,8-dimethyl-6-(p-tolyl)-1,2,3,4-tetrahydroisoquinolin-7-yl)acetic Acid]	3200
Cc1ccc(-c2c(C)c3c(c(C)c2C(OC(C)(C)C)C(=O)O)CN(C(=O)C2CCCCC2)CC3)cc1 (stereo not shown) [Example 4, 2-(tert-Butoxy)-2-(2-(cyclohexanecarbonyl)-5,8-dimethyl-6-(p-tolyl)-1,2,3,4-tetrahydroisoquinolin-7-yl)acetic Acid]	323
Cc1ccc(-c2c(C)c3c(c(C)c2C(OC(C)(C)C)C(=O)O)CN(C(=O)C(=O)N2CCCCC2)CC3)cc1 (stereo not shown) [Example 5, 2-(tert-Butoxy)-2-(5,8-dimethyl-2-(2-oxo-2-(piperidin-1-yl)acetyl)-6-(p-tolyl)-1,2,3,4-tetrahydroisoquinolin-7-yl)acetic Acid]	157
Cc1ccc(-c2c(C)c3c(c(C)c2C(OC(C)(C)C)C(=O)O)CN(C(=O)c2cccc(F)c2)CC3)cc1 (stereo not shown) [Example 6]	347
Cc1ccc(-c2c(C)c3c(c(C)c2C(OC(C)(C)C)C(=O)O)CN(CC(=O)N2CCCCC2)CC3)cc1 (stereo not shown) [Example 7, 2-(tert-Butoxy)-2-(5,8-dimethyl-2-(2-oxo-2-(piperidin-1-yl)ethyl)-6-(p-tolyl)-1,2,3,4-tetrahydroisoquinolin-7-yl)acetic Acid]	418
Cc1ccc(-c2c(C)c3c(c(C)c2C(OC(C)(C)C)C(=O)O)CN(c2ccccc2)CC3)cc1 (stereo not shown) [Example 8, 2-(tert-Butoxy)-2-(5,8-dimethyl-2-phenyl-6-(p-tolyl)-1,2,3,4-tetrahydroisoquinolin-7-yl)acetic Acid]	6480
Cc1ccc(-c2c(C)c3c(c(C)c2C(OC(C)(C)C)C(=O)O)CN(C(=O)N2CCCCC2)CC3)cc1 (stereo not shown) [Example 9, 2-(tert-Butoxy)-2-(5,8-dimethyl-2-(piperidine-1-carbonyl)-6-(p-tolyl)-1,2,3,4-tetrahydroisoquinolin-7-yl)acetic Acid]	38
Cc1ccc(-c2c(C)c3c(c(C)c2C(OC(C)(C)C)C(=O)O)CN(C(=O)NC2CCCCC2)CC3)cc1 (stereo not shown) [Example 10, 2-(tert-Butoxy)-2-(2-(cyclohexylcarbamoyl)-5,8-dimethyl-6-(p-tolyl)-1,2,3,4-tetrahydroisoquinolin-7-yl)acetic Acid]	1480
Cc1ccc(-c2c(C)c3c(c(C)c2C(OC(C)(C)C)C(=O)O)CN(S(=O)(=O)c2cccc(F)c2)CC3)cc1 (stereo not shown) [Example 11, 2-(tert-Butoxy)-2-(2-((3-fluorophenyl)sulfonyl)-5,8-dimethyl-6-(p-tolyl)-1,2,3,4-tetrahydroisoquinolin-7-yl)acetic Acid]	817
Cc1ccc(-c2c(C)c3c(c(C)c2[C@H](OC(C)(C)C)C(=O)O)CN(C(=O)N2CCCCC2)CC3)cc1 [Example 12, (S)-2-(tert-Butoxy)-2-(5,8-dimethyl-2-(piperidine-1-carbonyl)-6-(p-tolyl)-1,2,3,4-tetrahydroisoquinolin-7-yl)acetic Acid]	139
Cc1ccc(-c2c(C)c3c(c(C)c2[C@H](OC(C)(C)C)C(=O)O)CN(C(=O)N2CCC(C)(C)CC2)CC3)cc1 [Example 13, (S)-2-(tert-Butoxy)-2-(2-(4,4-dimethylpiperidine-1-carbonyl)-5,8-dimethyl-6-(p-tolyl)-1,2,3,4-tetrahydroisoquinolin-7-yl)acetic Acid]	129
Cc1ccc(-c2c(C)c3c(c(C)c2[C@H](OC(C)(C)C)C(=O)O)CN(C(=O)N2CCCC2)CC3)cc1 [Example 14, (S)-2-(tert-Butoxy)-2-(5,8-dimethyl-2-(pyrrolidine-1-carbonyl)-6-(p-tolyl)-1,2,3,4-tetrahydroisoquinolin-7-yl)acetic Acid]	1110
Cc1ccc(-c2c(C)c3c(c(C)c2[C@H](OC(C)(C)C)C(=O)O)CN(S(=O)(=O)N2CCC(C)(C)CC2)CC3)cc1 [Example 15, (S)-2-(tert-Butoxy)-2-(2-((4,4-dimethylpiperidin-1-yl)sulfonyl)-5,8-dimethyl-6-(p-tolyl)-1,2,3,4-tetrahydroisoquinolin-7-yl)acetic Acid]	113
Cc1ccc(-c2c(C)c3c(c(C)c2[C@H](OC(C)(C)C)C(=O)O)CN(S(=O)(=O)N2CCCCC2)CC3)cc1 [Example 16, (S)-2-(tert-Butoxy)-2-(5,8-dimethyl-2-(piperidin-1-ylsulfonyl)-6-(p-tolyl)-1,2,3,4-tetrahydroisoquinolin-7-yl)acetic Acid]	34
Cc1ccc(-c2c(C)c3c(c(C)c2[C@H](OC(C)(C)C)C(=O)O)CN(C(=O)OC(C)(C)C)CC3)cc1 [Example 17, (S)-2-(tert-Butoxy)-2-(2-(tert-butoxycarbonyl)-5,8-dimethyl-6-(p-tolyl)-1,2,3,4-tetrahydroisoquinolin-7-yl)acetic Acid]	444
Cc1ccc(-c2c(C)c3c(c(C)c2[C@H](OC(C)(C)C)C(=O)O)CN(S(=O)(=O)CC2CCCCC2)CC3)cc1 [Example 18, (S)-2-(tert-Butoxy)-2-(2-((cyclohexylmethyl)sulfonyl)-5,8-dimethyl-6-(p-tolyl)-1,2,3,4-tetrahydroisoquinolin-7-yl)acetic Acid]	1180
Cc1ccc(-c2c(C)c3c(c(C)c2[C@H](OC(C)(C)C)C(=O)O)CN(S(=O)(=O)C2CCCCC2)CC3)cc1 [Example 19, (S)-2-(tert-Butoxy)-2-(2-(cyclohexylsulfonyl)-5,8-dimethyl-6-(p-tolyl)-1,2,3,4-tetrahydroisoquinolin-7-yl)acetic Acid]	1450
Cc1ccc(-c2c(C)c3c(c(C)c2[C@H](OC(C)(C)C)C(=O)O)CN(C(=O)CC(C)(C)C)CC3)cc1 [Example 20, (S)-2-(tert-Butoxy)-2-(2-(3,3-dimethylbutanoyl)-5,8-dimethyl-6-(p-tolyl)-1,2,3,4-tetrahydroisoquinolin-7-yl)acetic Acid]	119
Cc1ccc(-c2c(C)c3c(c(C)c2C(OC(C)(C)C)C(=O)O)CCN(C2CCCCC2)C3)cc1 (stereo not shown) [Example 21, 2-(tert-Butoxy)-2-(2-cyclohexyl-5,8-dimethyl-7-(p-tolyl)-1,2,3,4-tetrahydroisoquinolin-6-yl)acetic Acid]	27
Cc1ccc(-c2c(C)c3c(c(C)c2C(OC(C)(C)C)C(=O)O)CCN(C(=O)c2cccc(F)c2)C3)cc1 (stereo not shown) [Example 22, 2-(tert-Butoxy)-2-(2-(3-fluorobenzoyl)-5,8-dimethyl-7-(p-tolyl)-1,2,3,4-tetrahydroisoquinolin-6-yl)acetic Acid]	329
Cc1ccc(-c2c(C)c3c(c(C)c2C(OC(C)(C)C)C(=O)O)CCN(C(=O)N2CCCCC2)C3)cc1 (stereo not shown) [Example 23, 2-(tert-Butoxy)-2-(5,8-dimethyl-2-(piperidine-1-carbonyl)-7-(p-tolyl)-1,2,3,4-tetrahydroisoquinolin-6-yl)acetic Acid]	108
Cc1ccc(-c2c(C)c3c(c(C)c2[C@H](OC(C)(C)C)C(=O)O)CCN(C(=O)C(C)(C)C)C3)cc1 [Example 24, (S)-2-(tert-Butoxy)-2-(5,8-dimethyl-2-pivaloyl-7-(p-tolyl)-1,2,3,4-tetrahydroisoquinolin-6-yl)acetic Acid]	87
Cc1ccc(-c2c(C)c3c(c(C)c2[C@H](OC(C)(C)C)C(=O)O)CCN(C(=O)CC(C)(C)C)C3)cc1 [Example 25, (S)-2-(tert-Butoxy)-2-(2-(3,3-dimethylbutanoyl)-5,8-dimethyl-7-(p-tolyl)-1,2,3,4-tetrahydroisoquinolin-6-yl)acetic Acid]	95
COc1c(F)cccc1C(=O)N1CCc2c(C)c([C@H](OC(C)(C)C)C(=O)O)c(-c3ccc(C)cc3)c(C)c2C1 [Example 26, (S)-2-(tert-Butoxy)-2-(2-(3-fluoro-2-methoxybenzoyl)-5,8-dimethyl-7-(p-tolyl)-1,2,3,4-tetrahydroisoquinolin-6-yl)acetic Acid]	61
Cc1ccc(-c2c(C)c3c(c(C)c2[C@H](OC(C)(C)C)C(=O)O)CCN(C(=O)OC(C)(C)C)C3)cc1 [Example 27, (S)-2-(tert-Butoxy)-2-(2-(tert-butoxycarbonyl)-5,8-dimethyl-7-(p-tolyl)-1,2,3,4-tetrahydroisoquinolin-6-yl)acetic Acid]	114
Cc1ccc(-c2c(C)c3c(c(C)c2[C@H](OC(C)(C)C)C(=O)O)CCN(C2CCOCC2)C3)cc1 [Example 28, (S)-2-(tert-Butoxy)-2-(5,8-dimethyl-2-(tetrahydro-2H-pyran-4-yl)-7-(p-tolyl)-1,2,3,4-tetrahydroisoquinolin-6-yl)acetic Acid]	378
